This assay concerns HBV. Kind of assay: HBV replication inhibition assay (BDNA assay) in HepG2.2.15 cells. As to conditions: HepG2.2.15 cells, read-out: DNA EC50. Type of assay: cell-based. A digest of the protocol:
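Supernatant encapsidated HBV DNA was measured by bDNA after DNase digestion and proteinase K release. Stably HBV-integrated HepG2.2.15 cells had two 3-day compound exposures (0.5% DMSO). Signals were background-subtracted and normalized to DMSO wells, and EC50 was obtained by four-parameter fit.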

[1] abbreviates: Hepatitis B virus, HepG2.2.15, HBV replication assay (BDNA assay).

Like-named read-outs stand apart in the source and are kept apart here.

As to `CN1OC(COC(N)=O)Cn2nc3c(c2C1=O)CN(C(=O)Nc1ccc(F)c(Cl)c1)CC3` (stereo not drawn) [Compound 057, (10-((3-chloro-4-fluorophenyl)carbamoyl)-2-methyl-1-oxo-1,2,4,5,8,9,10,11-octahydropyrido[4′,3′:3,4]pyrazolo[5,1-d][1,2,5]oxadiazepin-4-yl)methyl carbamate], the EC50 under setting [1] fell in the range of 1 to 100 nM.
For `CN1OC(COCC2CC2)Cn2nc3c(c2C1=O)CN(C(=O)Nc1ccc(F)c(Cl)c1)CC3` (stereo not drawn) [Compound 104, N-(3-chloro-4-fluoro-phenyl)-4-(cyclopropylmethoxymethyl)-2-methyl-1-oxo-5,8,9,11-tetrahydro-4H-pyrido[2,3]pyrazolo[2,4-d][1,2,5]oxadiazepine-10-carboxamide], the concentration giving a half-maximal response (EC50) under setting [1] lay within 1 to 100 nM.
Regarding `CN1OC(CO)Cn2nc3c(c2C1=O)CN(C(=O)Nc1cc(Cl)c(Cl)cc1F)CC3` (stereo not drawn) [Compound 027, N-(4,5-dichloro-2-fluorophenyl)-4-(hydroxymethyl)-2-methyl-1-oxo-1,4,5,8,9,11-hexahydropyrido[4′,3′:3,4]pyrazolo[5,1-d][1,2,5]oxadiazepine-10(2H)-carboxamide], the EC50 under setting [1] is 1 to 100 nM.
Regarding `C[C@@H]1Cc2nn3c(c2CN1C(=O)Nc1ccc(F)c(Br)c1)C(=O)N(C)OC(CN(C)C)C3` (stereo in doubt) [Compound 094_D1, (4S*,9R)—N-(3-bromo-4-fluorophenyl)-4-((dimethylamino)methyl)-2,9-dimethyl-1-oxo-1,4,5,8,9,11-hexahydropyrido[4′,3′:3,4]pyrazolo[5,1-d][1,2,5]oxadiazepine-10(2H)-carboxamide], under setting [1], the concentration giving a half-maximal response (EC50) lay in the range of 1 to 100 nM.
Regarding `C[C@@H]1Cc2nn3c(c2CN1C(=O)Nc1ccc(F)c(C#N)c1)C(=O)N(C)O[C@H](COCC(F)(F)F)C3` [Compound 210, (4S,9R)—N-(3-cyano-4-fluorophenyl)-2,9-dimethyl-1-oxo-4-((2,2,2-trifluoroethoxy)methyl)-1,4,5,8,9,11-hexahydropyrido[4′,3′:3,4]pyrazolo[5,1-d][1,2,5]oxadiazepine-10(2H)-carboxamide], the concentration giving a half-maximal response (EC50) under setting [1] is 1 to 100 nM.
For the compound `C[C@@H]1Cc2nn3c(c2CN1C(=O)Nc1ccc(F)c(C#N)c1F)C(=O)N(C)OC(C(=O)N(C)CC(F)F)C3` (stereo in doubt) [Compound 153_D2, (4R*,9R)—N10-(3-cyano-2,4-difluorophenyl)-N4-(2,2-difluoroethyl)-N4,2,9-trimethyl-1-oxo-1,4,5,8,9,11-hexahydropyrido[4′,3′:3,4]pyrazolo[5,1-d][1,2,5]oxadiazepine-4,10(2H)-dicarboxamide], for the setting “HBV replication assay (BDNA assay)”, the EC50 was in the range of 1 to 100 nM.
As to `C[C@@H]1Cc2nn3c(c2CN1C(=O)Nc1ccc(F)c(Cl)c1F)C(=O)N(C)OC(C(=O)N(C)CC(F)F)C3` (single isomer, unassigned) [Compound 152_D1, (4S*,9R)—N10-(3-chloro-2,4-difluorophenyl)-N4-(2,2-difluoroethyl)-N4,2,9-trimethyl-1-oxo-1,4,5,8,9,11-hexahydropyrido[4′,3′:3,4]pyrazolo[5,1-d][1,2,5]oxadiazepine-4,10(2H)-dicarboxamide], the half-maximal effective concentration (EC50) under setting [1] is 1 to 100 nM.
In the case of `CN1OC(CNC(=O)OCC(F)(F)F)Cn2nc3c(c2C1=O)CN(C(=O)Nc1ccc(F)c(Cl)c1)CC3` (stereo not drawn) [Compound 207, 2,2,2-trifluoroethyl ((10-((3-chloro-4-fluorophenyl)carbamoyl)-2-methyl-1-oxo-1,2,4,5,8,9,10,11-octahydropyrido[4′,3′:3,4]pyrazolo[5,1-d][1,2,5]oxadiazepin-4-yl)methyl)carbamate], the EC50 under setting [1] was in the range of 1 to 100 nM.
As for `Cc1c(F)c(F)cc(NC(=O)N2CCc3nn4c(c3C2)C(=O)N(C)OC(CO)C4)c1F` (single isomer, unassigned) [Compound 144_E1, (S*)-4-(hydroxymethyl)-2-methyl-1-oxo-N-(2,4,5-trifluoro-3-methylphenyl)-1,4,5,8,9,11-hexahydropyrido[4′,3′:3,4]pyrazolo[5,1-d][1,2,5]oxadiazepine-10(2H)-carboxamide], the EC50 under setting [1] lay in the range of 1 to 100 nM.

As usually defined, the EC50 is the midpoint of the concentration-response curve.

The values above are taken from patent US10987359B2, “Oxadiazepinone derivatives and methods of treating hepatitis B infections” (priority 2016, dated 2021).
